Data set [1] deals with T1, human MCH1 receptor (Homo sapiens, UniProt Q99705). The experiment in a line: Intracellular calcium response to MCH in COS-7 cells transfected with MCH1 (fluo-3, FLIPR): antagonist potency. It is filed as cell-based. On the set-up: expressed in transfected cells; host or cells: COS-7. The following applies: read-out: Kb (nM) hMCH1. The source says: MCH1 antagonist compounds were identified by their ability to inhibit the MCH-elicited response. […]. From the IC50 values, the antagonist potency (Kb)was derived using the Cheng-Prussof correction (Lazareno and Birdsall, 1993). […]
T1 sequence (Q99705 whole entry): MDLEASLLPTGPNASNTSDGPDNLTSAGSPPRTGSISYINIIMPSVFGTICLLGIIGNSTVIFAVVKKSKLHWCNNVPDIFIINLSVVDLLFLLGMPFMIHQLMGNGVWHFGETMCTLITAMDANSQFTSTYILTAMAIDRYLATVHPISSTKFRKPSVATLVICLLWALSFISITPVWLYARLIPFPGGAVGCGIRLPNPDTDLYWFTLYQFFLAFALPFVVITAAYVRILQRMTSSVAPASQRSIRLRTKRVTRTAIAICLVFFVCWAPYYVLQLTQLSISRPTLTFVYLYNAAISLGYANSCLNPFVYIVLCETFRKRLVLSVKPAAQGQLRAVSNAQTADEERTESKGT
(Calcium assays in cells follow changes in intracellular calcium, usually with a dye or a luminescent sensor.)

The target of a further data set is T2, human GALR2 receptor (Homo sapiens, UniProt O43603).
T2 construct: expressed in transfected cells
T2 sequence (O43603 1-387): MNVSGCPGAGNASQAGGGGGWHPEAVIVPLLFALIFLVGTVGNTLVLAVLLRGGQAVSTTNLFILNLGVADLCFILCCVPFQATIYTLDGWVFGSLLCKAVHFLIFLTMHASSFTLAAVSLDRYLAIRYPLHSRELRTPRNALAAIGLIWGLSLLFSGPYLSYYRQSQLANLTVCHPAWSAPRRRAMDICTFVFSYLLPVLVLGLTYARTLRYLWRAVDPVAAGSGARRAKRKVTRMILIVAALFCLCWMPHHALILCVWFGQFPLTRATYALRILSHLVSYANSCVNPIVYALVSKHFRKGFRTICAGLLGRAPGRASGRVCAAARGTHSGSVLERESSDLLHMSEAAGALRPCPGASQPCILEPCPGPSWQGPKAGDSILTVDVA
The experiment in a line: Binding affinity at the human GALR2 receptor. As to conditions: read-out: hGALR2 Ki. The source says:
(§1) The design of such compounds can be optimized by determining their binding affinity at the recombinant MCH1, NPY1, NPY2, Gal1, Gal2, Gal3, and 5HT2C receptors. The methods to obtain the cDNA of the receptor, express said receptors in heterologous systems, and carry out assays to determine binding affinity are described in the following publications: human NPY1 (Larhammar et al., 1992), human NPY5 (U.S. Pat. No. 5,602,024, the disclosure of which is hereby incorporated by reference in its entirety into this application), human Gall (Habert-Ortoli et al., 1994), human Gal2 (Smith et al., 1997), human Gal3 (Smith et al., 1998), and rat 5HT2C (Julius et al., 1988). Additionally, the compounds would optimally not bind at the following receptors due to possible side effects: human H1 histamine and human H2 histamine receptors; human alpha-1A adrenergic, human alpha-1D adrenergic, human alpha-2A adrenergic, human alpha-2B adrenergic, and human alpha-2C adrenergic receptors; human dopamine D1, D2, D3, D4, and D5 receptors; the β-adrenoceptor; and the human 5HT1A, human 5HT1B, human 5HT1D, human 5HT1E, human 5HT1F, human 5HT2A, rat 5HT2C, human 5HT4, human 5HT6, and human 5HT7 receptors.

The next data set concerns the target T3, human GALR3 receptor (Homo sapiens, UniProt O60755).
T3 construct: expressed in transfected cells
T3 sequence (O60755 1-368): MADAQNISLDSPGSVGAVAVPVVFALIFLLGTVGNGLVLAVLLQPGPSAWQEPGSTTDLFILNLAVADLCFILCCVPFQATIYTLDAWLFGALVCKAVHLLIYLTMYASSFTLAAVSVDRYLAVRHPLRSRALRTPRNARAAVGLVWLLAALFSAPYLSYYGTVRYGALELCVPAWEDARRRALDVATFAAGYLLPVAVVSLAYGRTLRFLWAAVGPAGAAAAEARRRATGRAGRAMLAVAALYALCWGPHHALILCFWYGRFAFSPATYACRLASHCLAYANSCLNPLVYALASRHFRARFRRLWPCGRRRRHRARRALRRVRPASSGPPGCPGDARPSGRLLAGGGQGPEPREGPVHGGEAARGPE
The experiment in a line: Binding affinity at the human GALR3 receptor. The following applies: read-out: hGALR3 Ki.
Text: as §1

For a further data set, the target named is T4, human GALR1 receptor (Homo sapiens, UniProt P47211).
T4 construct: expressed in transfected cells
T4 sequence (P47211 1-349): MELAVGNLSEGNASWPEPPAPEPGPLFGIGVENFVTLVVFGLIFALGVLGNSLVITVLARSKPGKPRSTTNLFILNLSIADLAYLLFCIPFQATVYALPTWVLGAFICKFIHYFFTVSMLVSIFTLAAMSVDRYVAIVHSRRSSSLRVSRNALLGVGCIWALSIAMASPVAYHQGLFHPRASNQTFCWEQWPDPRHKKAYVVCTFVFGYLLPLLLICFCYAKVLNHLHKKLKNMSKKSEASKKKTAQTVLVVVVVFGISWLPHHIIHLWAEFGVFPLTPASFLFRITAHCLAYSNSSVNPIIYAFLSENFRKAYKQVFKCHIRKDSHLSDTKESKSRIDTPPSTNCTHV
The experiment in a line: Binding affinity at the human GALR1 receptor. The following applies: read-out: hGALR1 Ki.
Text: as §1

For data set [2], the target named is T1, human MCH1 receptor. The experiment in a line: Competition binding, membrane preparations of A293 cells expressing the human MCH1 receptor, [3H] Compound 10 as radioligand. On the set-up: expressed in transfected cells. As to conditions: Table 3b; A293 cell membranes, [3H] Compound 10; read-out: hMCH1* Ki. How it is done: TRITIATED METHYL (4S)-3-{[(3-{4-[3-(ACETYLAMINO)PHENYL]-1-[…]}PROPYL)AMINO]CARBONYL}-4-(3,4-DIFLUOROPHENYL)-6-(METHOXYMETHYL)-2-OXO-1,2,3,4-TETRAHYDRO-5-PYRIMIDINECARBOXYLATE ([^3H] COMPOUND 10): This radiochemical synthesis was carried out by Amersham Pharmacia Biotech, Cardiff, Wales. A methanolic solution of methyl (4S)-3-({[3-(4-[3-(acetylamino)phenyl]-3,6-dihydro-1(2H)pyridinyl)propyl]amino}carbonyl)-4-(3,4-difluorophenyl)-6-(methoxymethyl)-2-oxo-1,2,3,4-tetrahydro-5-pyrimidinecarboxylate was exposed to tritium gas at 1 atmosphere pressure in the presence of 5% palladium on carbon with stirring overnight to give the tritiated methyl (4S)-3-{[(3-{4-[3-(acetylamino)phenyl]-1-piperidinyl}propyl)amino]carbonyl}-4-(3,4-difluorophenyl)-6-(methoxymethyl)-2-oxo-1,2,3,4-tetrahydro-5-pyrimidinecarboxylate ((+)-isomer) After purification by reverse phase HPLC (Hypersil ODS, 4.6×100 mm, methanol:H2O:Et3N 10:90:1 to 100:0:1 in 15 min at 1.0 mL/min, with radiochemical and UV detection), this product was used as a radioligand in the MCH1 binding assays. The same procedure was carried out with H2 gas in place of ^3H2 to afford the non-radioactive version of Compound 10.

For the next data set, the target named is T5, rat 5HT2C receptor (Rattus norvegicus, UniProt P08909).
T5 construct: expressed in transfected cells
T5 sequence (P08909 33-460): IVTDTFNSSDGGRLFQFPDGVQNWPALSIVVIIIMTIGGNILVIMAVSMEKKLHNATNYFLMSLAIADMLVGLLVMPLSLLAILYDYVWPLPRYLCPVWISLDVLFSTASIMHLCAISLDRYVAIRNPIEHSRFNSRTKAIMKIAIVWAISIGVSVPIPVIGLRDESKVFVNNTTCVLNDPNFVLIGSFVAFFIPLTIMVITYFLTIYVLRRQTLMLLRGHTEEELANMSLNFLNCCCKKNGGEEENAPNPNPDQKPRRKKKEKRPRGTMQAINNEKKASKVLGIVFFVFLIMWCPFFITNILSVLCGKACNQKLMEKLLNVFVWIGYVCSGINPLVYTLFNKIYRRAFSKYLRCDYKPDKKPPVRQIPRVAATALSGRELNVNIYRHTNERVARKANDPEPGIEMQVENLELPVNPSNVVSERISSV
The experiment in a line: Binding affinity at the rat 5HT2C receptor. The following applies: read-out: r5HT2C Ki.
Text: as §1
Other 5HT Receptors: Other serotonin receptor binding assays were performed according to published methods: rat 5HT2C receptor (Julius et al., 1988); and 5HT6 (Monsma, et al., 1993). The binding assays using the 5HT4 receptor were performed according to the procedures described in U.S. Pat. No. 5,766,879, the disclosure of which is hereby incorporated by reference in its entirety into this application.

pKi: −log10 of the molar value. Where a name gives a salt, the structure may show the parent alone. Read-outs that look alike come from different tables or passages of the source.

As usually defined, the melting point is the temperature, or range, at which the solid turns liquid. As usually defined, the Kb is the affinity of an antagonist, worked out from how it opposes an agonist. As usually defined, the pKi is −log10 of the Ki, conventionally taken in molar units.

Take `O=C(CCCN1CCC(NC(=O)c2ccccc2)CC1)c1ccc(Cl)cc1` (as salt: HCl) [Example 28, [3-(4-CHLOROBENZOYL)]PROPYL-4-BENZAMIDOPIPERIDINE]: the melting point is 243 to 244 °C.
Still for that read-out and setting: to `COCC1=C(C(=O)OC)C(c2ccc(F)c(F)c2)N(C(=O)NCCCN2CCC(OC(C)=O)(c3ccccc3)CC2)C(=O)N1` (centres unmarked) (as salt: hydrochloride) [Example 3, (1)-1,2,3,6-TETRAHYDRO-1-{N-[3-(4-O-ACETYL)-4-PHENYLPIPERIDIN-1-YL]PROPYL}CARBOXAMIDO-5-METHOXYCARBONYL-4-METHOXYMETHYL-6-(3,4-DIFLUOROPHENYL)-2-OXOPYRIMIDINE] belongs 82 to 84 °C; to `COC(=O)C1=C(C)NC(=O)N(C(=O)NCCCN2CCC3(CC2)OCc2ccccc23)C1c1ccc(F)c(F)c1` (centres unmarked) (as salt: hydrochloride) [Example 20, 4-(3,4-DIFLUORPHENYL)-6-METHYL-2-OXO-3-{[3-(4-SPIRO[ISOBENZOFURAN-1(3H),4′-PIPERIDINE]PROPYL}-1,2,3,4-TETRAHYDROPYRIMIDINE-5-CARBOXYLIC ACID METHYL ESTER], 178 to 182 °C; to `COC(=O)C1=C(C)NC(=O)N(C(=O)NCCCN2CCN(c3ccccc3C)CC2)C1c1ccc(F)c(F)c1` (centres unmarked) (as salt: hydrochloride) [Example 35, 1,2,3,6-TETRAHYDRO-1{N-[4-(2′-METHYL-PHENYL)PIPERAZIN-1-YL]-PROPYL}-CARBOXAMIDO-4-METHYL-6-(3,4-DIFLUOROPHENYL)-2-OXO-PYRIMIDINE], 66 to 71 °C.
Regarding `COCC1=C(C(=O)OC)C(c2ccc(F)c(F)c2)N(C(=O)NCCCN2CCC(c3cc(F)ccc3OC)CC2)C(=O)N1` (single isomer, unassigned; (+)) [Example 15], the Kb on human MCH1 receptor [1] stood at 289 nM.
The same measure, in the same setting: to `COCC1=C(C(=O)OC)C(c2ccc(F)c(F)c2)N(C(=O)NCCCN2CCC(c3ccccn3)CC2)C(=O)N1` (single isomer, unassigned; (+)) [Example 17, (+)-6-(3,4-DIFLUOROPHENYL)-1-{N-[4-(2-PYRIDYL)PIPERIDIN-1-YL]-PROPYL}CARBOXAMIDO-5-METHOXYCARBONYL-4-METHOXYMETHYL-2-OXO-1,2,3,6-TETRAHYDROPYRIMIDINE DIHYDROCHLORIDE] belongs 373 nM.
Still for that read-out and setting: to `CCC1=C(C(N)=O)C(c2ccc(F)c(F)c2)N(C(=O)NCCCN2CCC3(CC2)OCc2ccccc23)C(=O)N1` (single isomer, unassigned; (+)) [Example 22, (+)-1,2,3,6-TETRAHYDRO-1-{N-[4-(BENZO-4′,5′(H)FURAN)PIPERIDIN-1-YL]PROPYL}CARBOXAMIDO-4-ETHYL-6-(3,4-DIFLUOROPHENYL)-2-OXO-PYRIMIDINE-5-CARBOXAMIDE HYDROCHLORIDE] belongs 40 nM; to `COCC1=C(C(=O)OC)C(c2ccc(F)c(F)c2)N(C(=O)NCCCN2CCC(c3cc(F)c(F)c(F)c3)CC2)C(=O)N1` (single isomer, unassigned; (+)) [Example 33, (+)-1,2,3,6-TETRAHYDRO-1-{N-[4-(3,4,5-TRIFLUORO)-PHENYL-PIPERIDIN-1-YL]PROPYL}CARBOXAMIDO-4-METHOXYMETHYL-6-(3,4-DIFLUOROPHENYL)-2-OXOPYRIMIDINE-5-CARBOXYLIC ACID METHYL ESTER], 12 nM.
As to `COCC1=C(C(=O)OC)C(c2ccc(F)c(F)c2)N(C(=O)NCCCN2CCC(C)(c3ccccc3)CC2)C(=O)N1` (single isomer, unassigned; (+)) [Example 36, (+)-1,2,3,6-TETRAHYDRO-5-METHOXYCARBONYL-4-METHOXYMETHYL-2-OXO-1-{N-[3-(4-METHYL-4-PHENYL PIPERIDINE-1-YL]PROPYL}-6-(3,4-DIFLUOROPHENYL) PYRIMIDINE], on human MCH1 receptor [1], the Kb was 406 nM.
Turning to `COCC1=C(C(=O)OC)C(c2ccc(F)c(F)c2)N(C(=O)NCCCN2CC=C(c3cccc(NC(C)=O)c3)CC2)C(=O)N1` (centres unmarked) [Example 2, METHYL 3-[(3-4-[3-(ACETYLAMINO)PHENYL]-1,2,3,6-TETRAHYDRO-1-PYR-IDINYLPROPYL)AMINO]CARBONYL-4-(3,4-DIFLUOROPHENYL)-6-(METHOXY-METHYL)-2-OXO-1,2,3,4-TETRAHYDRO-5-PYRIMIDINECARBOXYLATE], the pKi at human GALR2 receptor (Table 3a), at human GALR2 receptor (Table 3b), at human GALR3 receptor (Table 3a), on human GALR3 receptor (Table 3b), on human GALR1 receptor (Table 3a) and on human GALR1 receptor (Table 3b) was less than 4.30 each time. In addition, the results for the pKi on human MCH1 receptor [2], on rat 5HT2C receptor (Table 3a) and on rat 5HT2C receptor (Table 3b) were 7.31, 4.40 and 4.40, respectively.
In the case of `COC(=O)C1=C(C)NC(=O)N(C(=O)NCCCN2CCC3(CC2)C(=O)CCc2ccccc23)C1c1ccc2nonc2c1` (centres unmarked) [Example 23, HYDROCHLORIDE], on human MCH1 receptor [1], the Kb was 68 nM.
On the same count and under the same terms, then `COC(=O)C1=C(C)NC(=O)N(C(=O)NCCCN2CCC3(CC2)C(=O)CCc2ccccc23)C1c1ccc(F)c(F)c1` (centres unmarked) [Example 24], with 102 nM.
